Reference: US11491120B2, “Pharmacological prophylactics against stress-induced affective disorders in females” (The Trustees of Columbia University in the City of New York, priority 2017, dated 2022)

How the values were obtained:
female 129S6/SvEv mice [1] = experiment: Elevated plus maze (EPM); type: in vivo, mouse; conditions: 10 mg/kg, 1 week prophylactic drug, learned helplessness stress
Method: The EPM was administered as previously described (58), with the exception that videos were scored using ANY-maze behavioral tracking software (Stoelting Co., Wood Dale, Ill.).
We have previously shown that prophylactic (R,S)-ketamine attenuates helpless behavior in male mice (18). To validate these findings in females, female mice were administered saline, (R,S)-ketamine, or (2R,6R)-HNK one week prior to LH training (FIG. 4A). Two weeks later, mice were tested for escape latency and for depressive- and anxiety-like behaviors in the FST and elevated plus maze (EPM). CFC was again administered following these behavioral assays.

female 129S6/SvEv mice [2] = experiment: Forced swim test after 10-day chronic immobilization stress (CIS); type: in vivo, mouse; conditions: 10 mg/kg, 1 week prophylactic drug
Method: The CIS procedure induces a depressive-like phenotype in test subjects and has both predictive and face validity (54). Here, we used an adapted protocol from Ramirez et al. (55).
As previously tested in male mice (18), we validated our findings in a model of chronic stress. […] Drug dosages were chosen based on results from FIG. 1 and used for the remainder of the project unless otherwise specified. One week later, a 10-day CIS protocol was administered. Subsequently, mice were tested in the FST.

female 129S6/SvEv mice [3] = experiment: Contextual fear conditioning (CFC), 3-shock, freezing in training and context re-exposure; conditions: for p, Sal vs. drug, Dunnett test: Freezing (Average), Contextual Fear Conditioning Re-exposure / p, Freezing (min 1-5) / p, Freezing (min 2) / p, Freezing (min 3) / p, Freezing (min 4) / p, Freezing (min 5): 1 week prophylactic drug; for Freezing during 3-shock CFC training vs saline: 2.5, 10, or 30 mg/kg, 1 week before CFC; for p, Freezing (min 1-5) / p, Freezing (min 2) / p, Freezing (min 3) / p, Freezing (min 4) / p, Freezing (min 5): Contextual Fear Conditioning Re-exposure
[4] = Dunnett test Sal vs. drug (2.5)

Structure (SMILES): CNC1(c2ccccc2Cl)CCCCC1=O (racemic) [(R,S)-ketamine, (RS)-2-(2-chlorophenyl)-2-(methylamino)cyclohexanone]
- * (significance), Sal vs. drug, Fisher's PLSD: Time in Closed Arms Average (min 1-6), Elevated Plus Maze (female 129S6/SvEv mice [1]): * (* p<0.05)
- * (significance), Sal vs. drug, Fisher's PLSD: Time in Open Arms Average (min 1-6), Elevated Plus Maze (female 129S6/SvEv mice [1]): * (* p<0.05)
- P, Sal vs. drug, Fisher's PLSD: Time in Closed Arms Average (min 1-6), Elevated Plus Maze (female 129S6/SvEv mice [1]): 0.0186
- P, Sal vs. drug, Fisher's PLSD: Time in Open Arms Average (min 1-6), Elevated Plus Maze (female 129S6/SvEv mice [1]): 0.0147
- * (significance), Sal vs. drug, Fisher's PLSD: Immobility Time (min 2), Forced Swim Test Day 2 (female 129S6/SvEv mice [2]): * (* p<0.05)
- * (significance), Sal vs. drug, Fisher's PLSD: Immobility Time (min 5), Forced Swim Test Day 2 (female 129S6/SvEv mice [2]): ** (** p<0.01)
- * (significance), Sal vs. drug, Fisher's PLSD: Immobility Time (min 6), Forced Swim Test Day 1 (female 129S6/SvEv mice [2]): ** (** p<0.01)
- * (significance), Sal vs. drug, Fisher's PLSD: Immobility Time (min 6), Forced Swim Test Day 2 (female 129S6/SvEv mice [2]): ** (** p<0.01)
- * (significance), Sal vs. drug, Fisher's PLSD: Immobility Time Average (min 3-6), Forced Swim Test Day 2 (female 129S6/SvEv mice [2]): ** (** p<0.01)
- p, Sal vs. drug, Fisher's PLSD: Immobility Time (min 1), Forced Swim Test Day 1 (female 129S6/SvEv mice [2]): 0.1619
- p, Sal vs. drug, Fisher's PLSD: Immobility Time (min 1), Forced Swim Test Day 2 (female 129S6/SvEv mice [2]): 0.0533
- p, Sal vs. drug, Fisher's PLSD: Immobility Time (min 2), Forced Swim Test Day 1 (female 129S6/SvEv mice [2]): 0.4051
- p, Sal vs. drug, Fisher's PLSD: Immobility Time (min 2), Forced Swim Test Day 2 (female 129S6/SvEv mice [2]): 0.0325
- p, Sal vs. drug, Fisher's PLSD: Immobility Time (min 3), Forced Swim Test Day 1 (female 129S6/SvEv mice [2]): 0.5575
- p, Sal vs. drug, Fisher's PLSD: Immobility Time (min 4), Forced Swim Test Day 1 (female 129S6/SvEv mice [2]): 0.4015
- p, Sal vs. drug, Fisher's PLSD: Immobility Time (min 5), Forced Swim Test Day 1 (female 129S6/SvEv mice [2]): 0.4985
- p, Sal vs. drug, Fisher's PLSD: Immobility Time (min 5), Forced Swim Test Day 2 (female 129S6/SvEv mice [2]): 0.0011
- p, Sal vs. drug, Fisher's PLSD: Immobility Time (min 6), Forced Swim Test Day 1 (female 129S6/SvEv mice [2]): 0.0022
- p, Sal vs. drug, Fisher's PLSD: Immobility Time (min 6), Forced Swim Test Day 2 (female 129S6/SvEv mice [2]): 0.0006
- p, Sal vs. drug, Fisher's PLSD: Immobility Time Average (min 3-6), Forced Swim Test Day 2 (female 129S6/SvEv mice [2]): 0.0005
- p, Sal vs. drug, Fishers PLSD: Immobility Time Average (min 1-6), Forced Swim Test Day 1 (female 129S6/SvEv mice [2]): 0.1873
- p, Sal vs. drug, Dunnett test: Freezing (Average), Contextual Fear Conditioning Re-exposure (female 129S6/SvEv mice [3]; 2.5 mg/kg): 0.7546
- p, Sal vs. drug, Dunnett test: Freezing (Average), Contextual Fear Conditioning Re-exposure (female 129S6/SvEv mice [3]; 10 mg/kg): 0.8986
- p, Sal vs. drug, Dunnett test: Freezing (Average), Contextual Fear Conditioning Re-exposure (female 129S6/SvEv mice [3]; 30 mg/kg): 0.8647
- Freezing during 3-shock CFC training vs saline (female 129S6/SvEv mice [3]; female mice): did not alter freezing
- Freezing during 3-shock CFC training vs saline (female 129S6/SvEv mice [3]; female mice, listed as (R, S)-ketamine): did not alter fear encoding
- Freezing during CFC training vs saline (female 129S6/SvEv mice [3]; 2.5 and 10 mg/kg, 3 days before CFC, female mice): significantly increased freezing compared to saline
- Freezing during CFC training vs saline (female 129S6/SvEv mice [3]; 2.5 and 10 mg/kg, 3 days before CFC, female mice; listed as R,S)-ketamine): significantly increased freezing during the last minute
- Freezing during context re-exposure vs saline (female 129S6/SvEv mice [3]; 3 days before CFC, female mice): do not affect freezing during re-exposure
- p, Freezing (min 1-5) (female 129S6/SvEv mice [3]; [4]): 0.7546
- p, Freezing (min 2) (female 129S6/SvEv mice [3]; [4]): 0.9996
- p, Freezing (min 3) (female 129S6/SvEv mice [3]; [4]): 0.6267
- p, Freezing (min 4) (female 129S6/SvEv mice [3]; [4]): 0.1951
- p, Freezing (min 5) (female 129S6/SvEv mice [3]; [4]): 0.4912
- p, Freezing (min 1-5) (female 129S6/SvEv mice [3]; Dunnett test Sal vs. drug (10)): 0.8986
- p, Freezing (min 2) (female 129S6/SvEv mice [3]; Dunnett test Sal vs. drug (10)): 0.9240
- p, Freezing (min 3) (female 129S6/SvEv mice [3]; Dunnett test Sal vs. drug (10)): 0.9864
- p, Freezing (min 4) (female 129S6/SvEv mice [3]; Dunnett test Sal vs. drug (10)): 0.6904
- p, Freezing (min 5) (female 129S6/SvEv mice [3]; Dunnett test Sal vs. drug (10)): 0.6667
- p, Freezing (min 1-5) (female 129S6/SvEv mice [3]; Dunnett test Sal vs. drug (30)): 0.8647
- p, Freezing (min 2) (female 129S6/SvEv mice [3]; Dunnett test Sal vs. drug (30)): 0.6079
- p, Freezing (min 3) (female 129S6/SvEv mice [3]; Dunnett test Sal vs. drug (30)): 0.8139
- p, Freezing (min 4) (female 129S6/SvEv mice [3]; Dunnett test Sal vs. drug (30)): 0.9885
- p, Freezing (min 5) (female 129S6/SvEv mice [3]; Dunnett test Sal vs. drug (30)): 0.9996
